This passage reports IC50 results from patent publication US10703756B2, “Pyrrolo[2,3-D]pyrimidinyl, pyrrolo[2,3-B]pyrazinyl, pyrrolo[2,3-B]pyridinyl acrylamides and epoxides thereof” (Pfizer Inc., priority 2015, dated 2020).

Assay [1] addresses T1, JAK3 enzyme (Homo sapiens, UniProt P52333).
T1 sequence (P52333 1-1124): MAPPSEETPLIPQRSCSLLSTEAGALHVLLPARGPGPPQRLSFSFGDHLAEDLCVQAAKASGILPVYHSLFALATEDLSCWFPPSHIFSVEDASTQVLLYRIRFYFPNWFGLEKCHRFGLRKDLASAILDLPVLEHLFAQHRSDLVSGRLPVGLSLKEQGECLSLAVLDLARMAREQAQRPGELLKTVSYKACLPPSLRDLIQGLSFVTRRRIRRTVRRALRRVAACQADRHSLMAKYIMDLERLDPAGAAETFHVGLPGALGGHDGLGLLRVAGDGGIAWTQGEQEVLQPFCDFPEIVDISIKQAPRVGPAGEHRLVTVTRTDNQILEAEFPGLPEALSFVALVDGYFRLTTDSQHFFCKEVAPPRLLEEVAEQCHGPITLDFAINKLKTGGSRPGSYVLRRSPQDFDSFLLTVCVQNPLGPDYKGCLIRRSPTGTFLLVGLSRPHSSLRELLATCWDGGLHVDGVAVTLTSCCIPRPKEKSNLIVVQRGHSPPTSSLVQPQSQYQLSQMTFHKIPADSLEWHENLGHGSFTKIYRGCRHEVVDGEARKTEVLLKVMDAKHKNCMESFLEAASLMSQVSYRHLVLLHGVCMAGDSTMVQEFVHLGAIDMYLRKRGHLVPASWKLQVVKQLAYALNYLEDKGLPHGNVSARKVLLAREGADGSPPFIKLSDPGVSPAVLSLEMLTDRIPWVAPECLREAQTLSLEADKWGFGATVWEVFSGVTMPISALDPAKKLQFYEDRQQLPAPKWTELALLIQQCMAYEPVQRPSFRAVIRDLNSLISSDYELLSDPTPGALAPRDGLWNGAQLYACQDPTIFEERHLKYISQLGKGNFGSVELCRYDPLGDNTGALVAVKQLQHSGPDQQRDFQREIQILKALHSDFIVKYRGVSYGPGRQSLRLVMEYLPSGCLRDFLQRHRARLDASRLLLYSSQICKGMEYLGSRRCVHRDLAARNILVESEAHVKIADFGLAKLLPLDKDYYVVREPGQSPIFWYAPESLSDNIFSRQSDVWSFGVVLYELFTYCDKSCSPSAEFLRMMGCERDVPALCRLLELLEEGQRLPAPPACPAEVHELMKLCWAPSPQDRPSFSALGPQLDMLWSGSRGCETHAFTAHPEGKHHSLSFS
In words: JAK Caliper Enzyme Assay at 4 μM ATP. It is filed as biochemical. The protocol: (§1) Test article was solubilized in dimethyl sulfoxide (DMSO) to a stock concentration of 30 mM. An 11-point half log dilution series was created in DMSO with a top concentration of 600 μM. […] Test article and assay controls were added to a 384-well plate. […] Enzyme concentrations and incubation times were optimized for each new enzyme preps and were modified slightly over time to ensure 20%-30% phosphorylation. […] The assay plates were placed on a Caliper Life Science Lab Chip 3000 (LC3000) instrument, and each well was sampled using appropriate separation conditions to measure the unphosphorylated and phosphorylated peptide.

For assay [2], the target named is T1, JAK3 enzyme. The assay is described as follows: JAK Caliper Enzyme Assay at 1 mM ATP. It is filed as biochemical. On the procedure:
as §1

By IC50 is commonly meant the concentration that gives 50% inhibition. Read a low IC50 as higher potency. Take `C#CCOCCc1c[nH]c2ncnc(N[C@@H]3CC[C@H](C)N(C(=O)C=C)C3)c12` [Example 131, 1-[(2S,5R)-2-Methyl-5-({5-[2-(prop-2-yn-1-yloxy)ethyl]-7H-pyrrolo[2,3-d]pyrimidin-4-yl}amino)piperidin-1-yl]prop-2-en-1-one]: the half-maximal inhibitory concentration (IC50) against JAK3 enzyme [1] amounted to 0.182 nM; at JAK3 enzyme [2] it was 33 nM.
Taken in the same sequence, the figures for `C=CC(=O)N1CCN(c2cnc3[nH]cc(C(=O)N[C@@H](C)COCc4ccccc4)c3n2)CC1(C)C` [Example 134, 2-(4-acryloyl-3,3-dimethylpiperazin-1-yl)-N-[(2S)-1-(benzyloxy)propan-2-yl]-5H-pyrrolo[2,3-b]pyrazine-7-carboxamide] were 12.4 nM and 2530 nM.
Taken in the same sequence, the figures for `C=CC(=O)N1CCN(c2cnc3[nH]cc(C(=O)N[C@H](CO)C(CC)CC)c3n2)CC1(C)C` [Example 137, 2-(4-acryloyl-3,3-dimethylpiperazin-1-yl)-N-[(2S)-3-ethyl-1-hydroxypentan-2-yl]-5H-pyrrolo[2,3-b]pyrazine-7-carboxamide] were 28.1 nM and 3020 nM.
With `C=CC(=O)N1CCN(c2cnc3[nH]cc(C(=O)N[C@@H](COC)c4ccccc4)c3n2)CC1(C)C` [Example 138, 2-(4-acryloyl-3,3-dimethylpiperazin-1-yl)-N-[(1R)-2-methoxy-1-phenylethyl]-5H-pyrrolo[2,3-b]pyrazine-7-carboxamide], the results for the IC50 against JAK3 enzyme [1] and against JAK3 enzyme [2] were 46.7 nM and 4840 nM, respectively.
Regarding `C=CC(=O)N1CCN(c2cnc3[nH]cc(C(=O)N[C@@H]4COC[C@@H]4CC(C)C)c3n2)CC1(C)C` [Example 142, 2-(4-acryloyl-3,3-dimethylpiperazin-1-yl)-N-[(3S,4R)-4-(2-methylpropyl)tetrahydrofuran-3-yl]-5H-pyrrolo[2,3-b]pyrazine-7-carboxamide], the IC50 against JAK3 enzyme [1] turned out to be 60.4 nM; on JAK3 enzyme [2] it was 4430 nM.
As for `C=CC(=O)N1CCN(c2cnc3[nH]cc(C(=O)N[C@H](CO)[C@@H](C)CC)c3n2)CC1(C)C` [Example 145, 2-(4-acryloyl-3,3-dimethylpiperazin-1-yl)-N-[(2S,3S)-1-hydroxy-3-methylpentan-2-yl]-5H-pyrrolo[2,3-b]pyrazine-7-carboxamide], the results for the IC50 against JAK3 enzyme [1] and against JAK3 enzyme [2] were 18.4 nM and 1930 nM, respectively.
`C=CC(=O)N1CCN(c2cnc3[nH]cc(C(=O)N[C@@H](CO)c4ccc(F)cc4)c3n2)CC1(C)C` [Example 146, 2-(4-acryloyl-3,3-dimethylpiperazin-1-yl)-N-[(1R)-1-(4-fluorophenyl)-2-hydroxyethyl]-5H-pyrrolo[2,3-b]pyrazine-7-carboxamide]: the IC50 on JAK3 enzyme [1] amounted to 12.2 nM; at JAK3 enzyme [2] it was 1370 nM.
For the compound `C=CC(=O)N1CCN(c2cnc3[nH]cc(C(=O)N[C@@H](C)COc4ccccc4)c3n2)CC1(C)C` [Example 147, 2-(4-acryloyl-3,3-dimethylpiperazin-1-yl)-N-[(2S)-1-phenoxypropan-2-yl] 5H-pyrrolo[2,3-b]pyrazine-7-carboxamide], the IC50 was 41.7 nM at JAK3 enzyme [1] and 3710 nM on JAK3 enzyme [2].
Regarding `C=CC(=O)N1CCN(c2cnc3[nH]cc(C(=O)N[C@H]4CCOC4)c3n2)CC1(C)C` [Example 150, 2-(4-acryloyl-3,3-dimethylpiperazin-1-yl)-N-[(3S)-tetrahydrofuran-3-yl] 5H-pyrrolo[2,3-b]pyrazine-7-carboxamide], the IC50 turned out to be 8.09 nM against JAK3 enzyme [1] and 1110 nM against JAK3 enzyme [2].
On the same counts, the results for `C=CC(=O)N1CCN(c2cnc3[nH]cc(C(=O)NC(C)(C)COC)c3n2)CC1(C)C` [Example 151, 2-(4-acryloyl-3,3-dimethylpiperazin-1-yl)-N-(1-methoxy-2-methylpropan-2-yl)-5H-pyrrolo[2,3-b]pyrazine-7-carboxamide] are 13.6 nM and 1520 nM.
On the same counts, the results for `C=CC(=O)N1CCN(c2cnc3[nH]cc(C(=O)N[C@@H](C)[C@H](O)c4ccccc4)c3n2)CC1(C)C` [Example 156, 2-(4-acryloyl-3,3-dimethylpiperazin-1-yl)-N-[(1R,2S)-1-hydroxy-1-phenylpropan-2-yl]-5H-pyrrolo[2,3-b]pyrazine-7-carboxamide] are 28.9 nM and 4090 nM.
For the compound `C=CC(=O)N1CCN(c2cnc3[nH]cc(C(=O)N[C@@H](CO)Cc4cccc(C#N)c4)c3n2)CC1(C)C` [Example 157, 2-(4-acryloyl-3,3-dimethylpiperazin-1-yl)-N-[(2R)-1-(3-cyanophenyl)-3-hydroxypropan-2-yl]-5H-pyrrolo[2,3-b]pyrazine-7-carboxamide], the IC50 at JAK3 enzyme [1] worked out at 20.6 nM; on JAK3 enzyme [2], 2900 nM.
Taken in the same sequence, the figures for `C=CC(=O)N1CCN(c2cnc3[nH]cc(C(=O)N[C@@H]4COC[C@@H]4n4cc(F)cn4)c3n2)CC1(C)C` [Example 159, 2-(4-acryloyl-3,3-dimethylpiperazin-1-yl)-N-[(3S,4R)-4-(4-fluoro-1H-pyrazol-1-yl)tetrahydrofuran-3-yl]-5H-pyrrolo[2,3-b]pyrazine-7-carboxamide] were 6.31 nM and 865 nM.
On the same counts, the results for `C=CC(=O)N1CCN(c2cnc3[nH]cc(C(=O)N[C@@H]4CCO[C@H]4C)c3n2)CC1(C)C` [Example 160, 3-({[2-(4-acryloyl-3,3-dimethylpiperazin-1-yl)-5H-pyrrolo[2,3-b]pyrazin-7-yl]carbonyl}amino)-2,5-anhydro-1,3,4-trideoxy-D-erythro-pentitol] are 4.33 nM and 463 nM.
For `C=CC(=O)N1CCN(c2cnc3[nH]cc(C(=O)N[C@H](CO)CCC)c3n2)CC1(C)C` [Example 161, 2-(4-acryloyl-3,3-dimethylpiperazin-1-yl)-N-[(2S)-1-hydroxypentan-2-yl] 5H-pyrrolo[2,3-b]pyrazine-7-carboxamide], the IC50 was determined as 7.35 nM on JAK3 enzyme [1] and 1120 nM at JAK3 enzyme [2].
As to `C=CC(=O)N1CCN(c2cnc3[nH]cc(C(=O)N[C@@H](c4ccccc4)C(C)(C)O)c3n2)CC1(C)C` [Example 162, 2-(4-acryloyl-3,3-dimethylpiperazin-1-yl)-N-[(1S)-2-hydroxy-2-methyl-1-phenylpropyl]-5H-pyrrolo[2,3-b]pyrazine-7-carboxamide], the concentration for half-maximal inhibition (IC50) against JAK3 enzyme [1] worked out at 6.19 nM; on JAK3 enzyme [2], 581 nM.
On the same counts, the results for `C=CC(=O)N1CCN(c2cnc3[nH]cc(C(=O)N[C@H](C)COc4ccccc4)c3n2)CC1(C)C` [Example 167, 2-(4-acryloyl-3,3-dimethylpiperazin-1-yl)-N-[(2R)-1-phenoxypropan-2-yl]-5H-pyrrolo[2,3-b]pyrazine-7-carboxamide] are 4.61 nM and 599 nM.
For `C=CC(=O)N1CCN(c2cnc3[nH]cc(C(=O)N[C@@H]4COc5ccccc5C4)c3n2)CC1(C)C` [Example 168, 2-(4-acryloyl-3,3-dimethylpiperazin-1-yl)-N-[(3S)-3,4-dihydro-2H-chromen-3-yl]-5H-pyrrolo[2,3-b]pyrazine-7-carboxamide], the IC50 on JAK3 enzyme [1] was 7.76 nM; on JAK3 enzyme [2], 769 nM.
On to `C=CC(=O)N1CCN(c2cnc3[nH]cc(C(=O)N[C@H](C)COCc4ccccc4)c3n2)CC1(C)C` [Example 169, 2-(4-acryloyl-3,3-dimethylpiperazin-1-yl)-N-[(2R)-1-(benzyloxy)propan-2-yl]-5H-pyrrolo[2,3-b]pyrazine-7-carboxamide], for which the half-inhibitory concentration (IC50) worked out at 7.31 nM on JAK3 enzyme [1] and 845 nM at JAK3 enzyme [2].
As to `C=CC(=O)N1CCC(Nc2cnc3[nH]cc(C(=O)NCc4nc5ccc(F)cc5o4)c3n2)CC1` [Example 194, 2-[(1-acryloylpiperidin-4-yl)amino]-N-[(6-fluoro-1,3-benzoxazol-2-yl)methyl]-5H-pyrrolo[2,3-b]pyrazine-7-carboxamide], the values for the half-maximal inhibitory concentration (IC50) against JAK3 enzyme [1] and against JAK3 enzyme [2] were 0.993 nM and 22 nM, respectively.
Taken in the same sequence, the figures for `C=CC(=O)N1CCC(Oc2cnc3[nH]cc(C(=O)N[C@H](C(C)C)[C@@H](O)C(F)(F)F)c3n2)CC1` [Example 202, 2-[(1-acryloylpiperidin-4-yl)oxy]-N-[(2R,3R)-1,1,1-trifluoro-2-hydroxy-4-methylpentan-3-yl]-5H-pyrrolo[2,3-b]pyrazine-7-carboxamide] were 5.31 nM and 697 nM.
